Experimental data as given in patent US6974839B2, “Method of delaying ejaculation” (DMI BioSciences, Inc., priority 2001, dated 2005).
Where a name gives a salt, the structure may show the parent alone.

Columns and labels:
normal subject = experiment: Delay of ejaculation after an oral dose taken 30–60 minutes prior to sexual intercourse; assay type: in vivo, human
Source text: […]. […] […]

animal models = conditions: cited from earlier work
μ-opioid receptors = conditions: cited from earlier work

Structure (SMILES)	delay of ejaculation (normal subject; 25 mg orally, 30–60 minutes prior to sexual intercourse, normal subject) [min]	ejaculation/orgasm achieved (normal subject; 100 mg)	side effects associated with the dose (normal subject; doses of 50–100 mg)	potency in producing analgesia relative to tramadol (animal models)	affinity of binding to μ-opioid receptors (μ-opioid receptors)	potency in μ-opioid binding relative to tramadol (μ-opioid receptors) [times]
COc1cccc([C@]2(O)CCCC[C@H]2CN(C)C)c1 (racemic) [tramadol hydrochloride, (±)cis-2-[(dimethylamino)methyl]-1-(3-methoxyphenyl)-cyclohexanol hydrochloride]	10 to 15	sometimes ejaculation/orgasm was not achieved	drowsiness, lightheadedness, dry mouth and a sense of slight euphoria (opioid effect)	–	–	–
CN(C)C[C@H]1CCCC[C@]1(O)c1cccc(O)c1 [M1]	–	–	–	up to 6 times	higher affinity binding	200
COc1cccc(C2(O)CCCCC2CN(C)C)c1 (stereo not shown) [tramadol, 2-[(dimethylamino)methyl]-1-(3-methoxyphenyl)-cyclohexanol]	–	–	–	–	low affinity binding	–
